Data taken from US20050112128A1, “Inhibition of protein kinase c-mu (PKD) as a treatment for cardiac hypertrophy and heart failure” (Myogen, Inc. and Board of Regents, The University of Texas …, priority 2003, published 2005).
Entries after “also recorded” stand apart in the source; their conditions may differ.

Key:
[1] = test system: nuclear export of GFP-HDAC5 in NRVMs; test: Quantitative HDAC5 nuclear export assay in NRVMs (Cellomics High Content Imaging System); type: cell-based, rat; settings: 2 hrs
NRVMs = test: ANF immunostaining of cardiomyocytes (hypertrophy marker); type: cell-based, rat; settings: PE 20 μM or PMA 100 nM, 24 hrs
Description: FIGS. 3A-C—Inhibition of PKC-mediated cardiac hypertrophy by signalresistant HDAC5. NRVMs were cultured on 6-well dishes and infected with adenoviruses (MOI=10) encoding a LacZ control (Ad-LacZ) or FLAG-tagged HDAC5 harboring alanines in place of serines 259 and 498 (Ad-HDAC5 S/A), which are required for 14-3-3-mediated nuclear export. Cells were treated with PE (20 μM) or PMA (100 nM) for 24 hrs prior to analysis. FIG. 3A. Cells were fixed and sarcomeres visualized by indirect immunofluorescence with primary antibody specific for α-actinin and fluorescein-conjugated secondary antibody. FIG. 3B. ANF protein was detected by indirect immunofluorescence with anti-ANF primary antibody. FIG. 3C. Total RNA was harvested from cells and subjected to dot blot analysis with radiolabeled oligonucleotides specific for the indicated transcripts. RNA levels were quantified using a phosphorimager and are depicted as -fold change relative to amounts in unstimulated cells infected with Ad-LacZ. Values were normalized to GAPDH controls.
Cell culture and transfection assays. COS cells were maintained in DMEM with FBS (10%), L-glutamine (2 mM), and penicillin-streptomycin. Transfection of COS cells was performed with Fugene 6 (Roche Molecular Biochemicals) according to manufacturer's instructions. […]

endogenous PKD = test: Co-immunoprecipitation of endogenous PKD with HDAC5 in NRVMs (total PKD and p-916 immunoblot); type: cell-based, rat; settings: PE 20 μM 1 hr, absence or presence of Bis I 10 μM
ras transformed cells = settings: Taunton et al., 1996; cited from earlier work
[2] = Takahashi et al., 1996; cited from earlier work
[3] = test system: association of HDAC5 and 14-3-3; test: Immunoprecipitation/immunoblotting of HDAC5 and 14-3-3 in NRVMs; type: cell-based, rat; settings: inhibitor 10 μM, 1 hr before PE (20 μM) or ET-1 (50 nM) for 1 hr
HDAC5-bound PKD = biological target: T1, HDAC5-bound PKD (Rattus norvegicus, UniProt Q9WTQ1); type: biochemical; settings: 10 μM inhibitor in kinase reaction mixture (post)
T1 construct: Association of endogenous PKD with HDAC5 in cardiomyocytes; endogenous in cells; host or cells: neonatal rat ventricular myocytes; the kinase co-precipitated with adenoviral FLAG-HDAC5
T1 sequence (Q9WTQ1 1-918): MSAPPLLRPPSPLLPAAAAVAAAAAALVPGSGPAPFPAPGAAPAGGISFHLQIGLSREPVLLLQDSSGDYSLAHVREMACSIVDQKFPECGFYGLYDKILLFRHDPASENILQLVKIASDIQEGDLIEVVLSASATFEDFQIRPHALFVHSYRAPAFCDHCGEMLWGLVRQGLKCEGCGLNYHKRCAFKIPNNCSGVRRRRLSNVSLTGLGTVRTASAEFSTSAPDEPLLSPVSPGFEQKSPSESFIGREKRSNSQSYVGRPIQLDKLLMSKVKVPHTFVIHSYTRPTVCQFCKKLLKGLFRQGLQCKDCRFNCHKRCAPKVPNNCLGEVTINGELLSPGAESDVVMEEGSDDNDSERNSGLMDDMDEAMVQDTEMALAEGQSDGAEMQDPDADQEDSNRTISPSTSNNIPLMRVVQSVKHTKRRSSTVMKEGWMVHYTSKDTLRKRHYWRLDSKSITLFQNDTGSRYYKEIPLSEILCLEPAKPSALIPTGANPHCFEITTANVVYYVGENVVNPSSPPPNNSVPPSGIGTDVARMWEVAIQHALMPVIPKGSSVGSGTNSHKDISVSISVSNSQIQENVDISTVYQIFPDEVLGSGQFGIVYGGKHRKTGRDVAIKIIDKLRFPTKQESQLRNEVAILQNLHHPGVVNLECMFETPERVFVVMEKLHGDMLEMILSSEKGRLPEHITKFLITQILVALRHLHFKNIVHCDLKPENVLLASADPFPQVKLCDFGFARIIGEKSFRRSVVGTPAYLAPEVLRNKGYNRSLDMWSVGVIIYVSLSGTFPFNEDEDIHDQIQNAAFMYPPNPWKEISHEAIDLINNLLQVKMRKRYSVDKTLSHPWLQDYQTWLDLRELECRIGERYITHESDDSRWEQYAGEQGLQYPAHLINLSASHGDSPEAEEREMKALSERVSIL

PKD = biological target: T2, PKD (Homo sapiens, UniProt Q15139); settings: literature (Van Lint 2002; Gschwendt 1996; Haworth); cited from earlier work
T2 sequence (Q15139 1-912): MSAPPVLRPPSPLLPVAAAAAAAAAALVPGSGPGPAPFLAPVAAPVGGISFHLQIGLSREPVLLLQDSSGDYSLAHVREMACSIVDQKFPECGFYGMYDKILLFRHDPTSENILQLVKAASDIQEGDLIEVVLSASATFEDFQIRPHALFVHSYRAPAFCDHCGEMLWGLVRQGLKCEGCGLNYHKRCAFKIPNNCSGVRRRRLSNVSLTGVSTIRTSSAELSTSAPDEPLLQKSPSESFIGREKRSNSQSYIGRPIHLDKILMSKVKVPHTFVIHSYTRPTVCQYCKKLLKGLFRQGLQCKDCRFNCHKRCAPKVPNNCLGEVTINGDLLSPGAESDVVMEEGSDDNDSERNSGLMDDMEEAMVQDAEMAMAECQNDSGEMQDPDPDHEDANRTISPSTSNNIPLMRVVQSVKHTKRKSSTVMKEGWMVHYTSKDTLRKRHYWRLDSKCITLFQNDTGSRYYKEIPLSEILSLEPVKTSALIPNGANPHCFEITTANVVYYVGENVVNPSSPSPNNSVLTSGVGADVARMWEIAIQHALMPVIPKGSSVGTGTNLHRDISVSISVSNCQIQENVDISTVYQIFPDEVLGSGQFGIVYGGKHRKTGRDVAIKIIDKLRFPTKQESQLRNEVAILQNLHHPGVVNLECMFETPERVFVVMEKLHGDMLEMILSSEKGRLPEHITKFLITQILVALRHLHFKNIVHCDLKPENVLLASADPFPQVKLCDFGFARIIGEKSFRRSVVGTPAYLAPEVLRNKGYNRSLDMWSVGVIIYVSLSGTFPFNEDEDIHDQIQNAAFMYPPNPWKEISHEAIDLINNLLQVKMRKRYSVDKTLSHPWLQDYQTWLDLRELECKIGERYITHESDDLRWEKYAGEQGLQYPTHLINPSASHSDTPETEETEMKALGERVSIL

For `CNC[C@H](O)c1cccc(O)c1` [PE, phenylephrine], the “agonist-triggered nuclear export of HDAC5 in cardiomyocytes” value ([1]; NRVMs infected with Ad-GFP-HDAC5, PE 0.1 to 20 μM, ET-1 50 nM, FBS 10%) was “triggered nuclear export of HDAC5 in a concentration-dependent manner; also recorded: triggered dose-dependent nuclear export of HDAC5”, the ANF protein expression (NRVMs) was “prominent perinuclear ANF protein expression” and the “activation of HDAC5-associated PKD” value (endogenous PKD) was “became activated in a PKC-dependent manner”.
In the case of `CC(/C=C/C(=O)NO)=C\[C@@H](C)C(=O)c1ccc(N(C)C)cc1` [Trichostatin A], the “effect on acetylation and morphology of ras transformed cells” value (ras transformed cells) is listed as “induce hyperacetylation and cause reversion of ras transformed cells to normal morphology” and the “immunosuppression in a mouse model” value [2] is listed as “induces immunsuppression in a mouse model”.
In the case of `Cn1c2ccccc2c2c3c(c4c5ccccc5n(CCC#N)c4c21)CNC3=O` [Gö6976], the “block of ET-1-induced nuclear export of HDAC5” value ([1]; NRVMs, ET-1 50 nM, inhibitor pre-treatment 30 min) is reported as “efficiently blocked nuclear export of HDAC5”, the “block of FBS-induced nuclear export of HDAC5” value ([1]; NRVMs, FBS 10%, inhibitor pre-treatment 30 min) is reported as “efficiently blocked nuclear export of HDAC5” and the “block of PE-induced nuclear export of HDAC5” value ([1]; NRVMs, PE 20 μM, inhibitor pre-treatment 30 min, KN93, wortmannin, staurosporine 1 mM, U1026, HA1077, Y-27632, DAG Kinase inhibitor II, SB216763, Bis I 10 mM, rapamycin 30 ng/ml, Gö6983 10 μM) is reported as “efficiently blocked nuclear export of HDAC5”. The “block of association of HDAC5 and 14-3-3” value [3] was “blocked association of HDAC5 and 14-3-3 in response to both PE and ET-1”, the “block of HDAC5 phosphorylation, inhibitor added directly to kinase reaction” value (HDAC5-bound PKD) was “blocked phosphorylation of HDAC5; also recorded: blocked phosphoryl transfer to HDAC5” and the “sensitivity of PKD to the inhibitor” value (PKD) was “sensitive to Gö6976”.
